# Data: patent US20230263825A1, “ANTI-CANCER ACTIVITY OF PERBORATE SALTS” (priority 2020, published 2023)
# What was measured:
# [1] = system: PSN-1 (a pancreatic adenocarcinoma cell line); assay: MTS cytotoxicity assay, single agents and combinations; format: cell-based; details: Homo sapiens, PSN1, PSN-1, chemotherapeutic agent alone; read-out: EC50 concentration
# Description: (§1) An MTS reduction (MTS (3-(4,5-dimethylthiazol-2-yl)-5-(3-carboxymethoxyphenyl)-2-(4-sulfophenyl)-2H-tetrazolium) assay) was conducted to analyze the cytotoxic effect of sodium perborate tetrahydrate on lung, chordoma and pancreatic cells and normal cells. In this method, cell viability is determined via the activity of mitochondrial dehydrogenase enzyme, which reduces the tetrazolium dye MTS to its […] formazan (absorbance maximum of 490 nm in PBS).
# (§2) Cells were counted and seeded in 96-well culture dishes. […] The positive control comprised 20% Dimethyl Sulfoxide and the negative control comprised complete growth media. Seeding densities were as follows: DMS114: 20.000 cells/well; MRC5: 5.000 cells/well; CH22: 2.000 cells/well; JHC7, UM-Chor1, MUG-Chor1, UCH1 and NPH: 5.000 cells/well; PSN1: 10.000 cells/well; BxPC3 and ASPC: 7.500 cells/well. The effect of sodium perborate tetrahydrate on cell viability was measured as follows. The cell culture medium was discarded and 100 μl of MTS solution (10% glucose solution and 1% MTS-PMS solution in PBS) was added into each well. After 1 hour incubation in a humidified incubator, an absorbance reading was taken to determine mitochondrial dehydrogenase activity and cell survival was calculated relative to the negative control.
# [2] = system: DMS114 cells (small cell lung cancer cells); assay: MTS cytotoxicity assay; format: cell-based; details: DMS114
# Description: as §1, §2
compound,measurement,setting,value
"O=c1[nH]cc(F)c(=O)[nH]1 [5-Fluorouracil, reference compound]",EC50,[1],13 µM
sodium pentaborate pentahydrate [reference compound],EC50 (dose that kills 50% of cells),[2],"1,250 μg/mL"
"OB(O)O [boric acid, reference compound]",EC50,"[2]; Homo sapiens, DMS-114, read-out: EC50 (dose that kills 50% of cells)",1000 µg/mL
